Values quoted from earlier work, collected in US10596151B2, “Methods and pharmaceutical compositions for reducing arterial stiffness with a combination of a therapeutic agent blocking the angiotensin receptor and a therapeutic agent inhibiting the NEP enzyme” (Novartis AG, priority 2015, dated 2020).

Tested on: patients with hypertension
Conditions: after 12 weeks of therapy; cited from earlier work

O=C(N[C@H]1CCS[C@H]2CCC[C@@H](C(=O)O)N2C1=O)[C@@H](S)Cc1ccccc1 [omapatrilat]
aortic characteristic impedance compared with enalapril: greater improvements in aortic characteristic impedance compared with enalapril
